Source: patent US11046697B2, “Compounds and compositions useful for treating disorders related to NTRK” (BLUEPRINT MEDICINES CORPORATION, priority 2015, dated 2021)
Like-named read-outs stand apart in the source and are kept apart here.

Legend:
[1] = molecular target: T1, wild type NTRK1 enzyme (Homo sapiens, UniProt P04629); test: NTRK1 Wild Type Assay at 1 mM ATP; assay type: biochemical; conditions: 1 mM ATP; read-out: Enz NTRK1 IC50
T1 construct: purchased BPS Bioscience 40280
Protocol: NTRK1 Wild Type Assay at 1 mM ATP
The reaction was stopped by the addition of 70 μL of Stop buffer (100 mM HEPES pH 7.5, 0.015% Brij 35, 35 mM EDTA and 0.2% of Coating Reagent 3 (Caliper Lifesciences)). The plate was then read on a Caliper EZReader 2 (protocol settings: −1.7 psi, upstream voltage −500, downstream voltage −3000, post sample sip 35s).

[2] = test system: KM12 wild type colon carcinoma cell line harboring the TPM3-NTRK1 fusion protein; test: NTRK wild type cellular assay (CellTiter-Glo growth inhibition); assay type: cell-based; conditions: 72 hr, CellTiter-Glo, read-out: KM12 (WT) IC50
Protocol: (§1) NTRK Wild Type and G595R Mutant Cellular Assays Protocol
(§2) KM12 wild type colon carcinoma cell line harboring the TPM3-NTRK1 fusion protein was obtained from the National Cancer Institute (NCI). This line has been previously shown to be dependent upon the NTRK activity derived from the NTRK fusion protein for growth and survival. […] Cells were first plated in 384-well plates at 1000 cells/well in complete media (10% FBS and 1% pen/strep) and incubated overnight at 37° C. Cells were then dosed with test articles at varying concentrations using the Bravo liquid handling system. […] Each compound was run in duplicate per plate. […] 72 hr after dosing, assay plates were developed using CellTiter-Glo (Promega) and resultant luminescence was read on the Envision plate reader. IC50 determinations were calculated using a 4-parameter curve fitting algorithm

[3] = test system: KM12 Cliff (G595R) cell line; test: NTRK G595R mutant cellular assay (CellTiter-Glo growth inhibition); assay type: cell-based; conditions: 72 hr, CellTiter-Glo
Protocol: as §1, §2

T1 sequence (P04629 440-796 limits assumed): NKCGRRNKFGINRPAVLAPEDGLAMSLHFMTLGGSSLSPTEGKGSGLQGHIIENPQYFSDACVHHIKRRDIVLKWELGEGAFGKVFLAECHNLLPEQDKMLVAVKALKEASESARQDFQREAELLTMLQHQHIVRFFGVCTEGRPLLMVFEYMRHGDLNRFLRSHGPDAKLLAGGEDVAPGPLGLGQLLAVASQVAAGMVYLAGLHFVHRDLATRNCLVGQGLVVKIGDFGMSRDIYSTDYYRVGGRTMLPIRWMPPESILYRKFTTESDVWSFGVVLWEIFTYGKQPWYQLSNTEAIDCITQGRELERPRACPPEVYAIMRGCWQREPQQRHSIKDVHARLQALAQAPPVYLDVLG

| IC50 [1] [nM] | IC50 [2] [nM] | IC50 ([2]; Homo sapiens, KM12, 72 h) [nM] | Structure (SMILES) | IC50 [3] [nM] | IC50 ([3]; Homo sapiens, KM12, 72 h) [nM] |
| --- | --- | --- | --- | --- | --- |
| 100 to 1000 | 100 to 1000 | – | CN(Cc1cccc(C#N)c1)C(=O)c1n[nH]c2ncnc(N[C@@H]3CC[C@@H](O)[C@H]3O)c12 [Compound 134] | 100 to 1000 | – |
| < 10 | – | 10 to 100 | CN(Cc1cc(F)cn(C)c1=O)C(=O)c1n[nH]c2ncnc(N[C@@H]3CCC[C@H]3O)c12 [Compound 136] | – | 10 to 100 |
| 10 to 100 | 10 to 100 | – | CN(Cc1cccc(Cl)c1)C(=O)c1n[nH]c2ncnc(N[C@@H]3CC[C@@H](O)[C@H]3O)c12 [Compound 137] | 10 to 100 | – |
| 100 to 1000 | 100 to 1000 | – | CN(Cc1cccnc1Cl)C(=O)c1n[nH]c2ncnc(N[C@@H]3CC[C@@H](O)[C@H]3O)c12 [Compound 138] | 100 to 1000 | – |
| 10 to 100 | 10 to 100 | – | CN(Cc1cccc(F)c1F)C(=O)c1n[nH]c2ncnc(N[C@@H]3CC[C@@H](O)[C@H]3O)c12 [Compound 139] | 10 to 100 | – |
| 10 to 100 | 10 to 100 | – | CN(Cc1cccc(C#N)c1F)C(=O)c1n[nH]c2ncnc(N[C@@H]3CC[C@@H](O)[C@H]3O)c12 [Compound 142] | 100 to 1000 | – |
| 10 to 100 | 10 to 100 | – | O=C(c1n[nH]c2ncnc(N[C@@H]3CC[C@@H](O)[C@H]3O)c12)N1C[C@@H](F)C[C@@H]1c1ccccc1 [Compound 144] | 100 to 1000 | – |
| 100 to 1000 | – | 10 to 100 | O=C(c1n[nH]c2ncnc(N[C@@H]3CCOC[C@H]3O)c12)N1C[C@@H](F)C[C@@H]1c1ccccc1 [Compound 145] | – | 100 to 1000 |
| 10 to 100 | – | 100 to 1000 | CN(Cc1cc(F)cn(C)c1=O)C(=O)c1n[nH]c2ncnc(N[C@@H]3CC[C@@H](O)[C@H]3O)c12 [Compound 147] | – | 100 to 1000 |
| < 10 | – | < 10 | CN(Cc1cc(Cl)ccc1F)C(=O)c1n[nH]c2ncnc(N[C@@H]3CC[C@@H](O)[C@H]3O)c12 [Compound 148] | – | < 10 |
| < 10 | 10 to 100 | – | CN(Cc1cc(F)cnc1Cl)C(=O)c1n[nH]c2ncnc(NC3COCCC3O)c12 (stereo not drawn) [Compound 149] | 10 to 100 | – |
| 10 to 100 | 10 to 100 | – | CN(Cc1cc(F)cnc1Cl)C(=O)c1n[nH]c2ncnc(NC3CCOCC3O)c12 (stereo not drawn) [Compound 150] | 10 to 100 | – |
| 10 to 100 | 10 to 100 | – | CN(Cc1cc(F)cnc1Cl)C(=O)c1n[nH]c2ncnc(NC3CC(F)CC3O)c12 (stereo not drawn) [Compound 151] | 10 to 100 | – |
| 10 to 100 | 10 to 100 | – | O=C(c1n[nH]c2ncnc(N[C@H]3[C@H](O)[C@H](O)[C@@H]4C[C@@H]43)c12)N1C[C@@H](F)C[C@@H]1c1ccccc1 [Compound 153] | 10 to 100 | – |
| 10 to 100 | 10 to 100 | – | O=C(c1n[nH]c2ncnc(N[C@@H]3CCC[C@@H](O)[C@H]3O)c12)N1C[C@@H](F)C[C@@H]1c1ccccc1 [Compound 155] | 10 to 100 | – |
| 10 to 100 | – | 10 to 100 | CN(Cc1cc(Cl)ccc1C#N)C(=O)c1n[nH]c2ncnc(N[C@@H]3CC[C@@H](O)[C@H]3O)c12 [Compound 156, N-(5-chloro-2-cyanobenzyl)-4-(((1R,2S,3R)-2,3-dihydroxycyclopentyl)amino)-N-methyl-1H-pyrazolo[3,4-d]pyrimidine-3-carboxamide] | – | < 10 |
| < 10 | – | 10 to 100 | O=C(c1n[nH]c2ncnc(N[C@@H]3CCOC[C@H]3O)c12)N1C[C@@H](F)C[C@@H]1c1cccc(F)c1 [Compound 158] | – | 10 to 100 |
| < 10 | – | 10 to 100 | CN(Cc1cc(F)cnc1Cl)C(=O)c1n[nH]c2ncnc(N[C@H]3[C@H](O)[C@H](O)[C@@H]4C[C@@H]43)c12 [Compound 159] | – | 10 to 100 |

| IC50 [1] [nM] | IC50 [2] [nM] | IC50 ([2]; Homo sapiens, KM12, 72 h) [nM] | Structure (SMILES) | IC50 [3] [nM] | IC50 ([3]; Homo sapiens, KM12, 72 h) [nM] |
| --- | --- | --- | --- | --- | --- |
| < 10 | 10 to 100 | – | CC(c1cc(F)ccc1F)N(C)C(=O)c1n[nH]c2ncnc(NC3COCC(O)C3O)c12 (stereo not drawn) [Compound 160] | 10 to 100 | – |
| 10 to 100 | 10 to 100 | – | CN(Cc1cc(F)cnc1Cl)C(=O)c1n[nH]c2ncnc(N[C@@H]3CCC[C@@H](O)[C@H]3O)c12 [Compound 161] | 10 to 100 | – |
| < 10 | – | 10 to 100 | CN(Cc1cc(F)ccc1Cl)C(=O)c1n[nH]c2ncnc(N[C@@H]3COC[C@@H](O)[C@H]3O)c12 [Compound 162] | – | 10 to 100 |
| < 10 | – | 10 to 100 | CN(Cc1cc(Cl)ccc1F)C(=O)c1n[nH]c2ncnc(N[C@@H]3COC[C@@H](O)[C@H]3O)c12 [Compound 163] | – | 10 to 100 |
| 10 to 100 | – | 10 to 100 | CN(Cc1cc(F)cc(F)c1F)C(=O)c1n[nH]c2ncnc(N[C@@H]3COC[C@@H](O)[C@H]3O)c12 [Compound 164] | – | 10 to 100 |
| < 10 | 100 to 1000 | – | N#C[C@H]1C[C@@H](O)[C@H](Nc2ncnc3[nH]nc(C(=O)N4C[C@@H](F)C[C@@H]4c4cncc(F)c4)c23)C1 [Compound 166] | 100 to 1000 | – |
| < 10 | < 10 | – | CN(Cc1cc(Cl)ccc1Br)C(=O)c1n[nH]c2ncnc(N[C@@H]3CCC[C@@H](O)[C@H]3O)c12 [Compound 167] | < 10 | – |
| < 10 | < 10 | – | O=C(c1n[nH]c2ncnc(NC3CCCC(O)C3O)c12)N1CC(F)CC1c1cccc(F)c1 (stereo not drawn) [Compound 168] | < 10 | – |
| 10 to 100 | 10 to 100 | – | O=C(c1n[nH]c2ncnc(NC3COCC(O)C3O)c12)N1CC(F)CC1c1cccc(F)c1 (stereo not drawn) [Compound 169] | 10 to 100 | – |
| < 10 | < 10 | – | O=C(c1n[nH]c2ncnc(N[C@@H]3C=C[C@@H](O)[C@H]3O)c12)N1C[C@@H](F)C[C@@H]1c1cc(F)ccc1F [Compound 170] | < 10 | – |
| 10 to 100 | 10 to 100 | – | O=C(c1n[nH]c2ncnc(N[C@@H]3C=C[C@@H](O)[C@H]3O)c12)N1C[C@@H](F)C[C@@H]1c1cc(F)cc(F)c1 [Compound 171] | 10 to 100 | – |
| < 10 | 10 to 100 | – | O=C(c1n[nH]c2ncnc(N[C@@H]3C=C[C@@H](O)[C@H]3O)c12)N1C[C@@H](F)C[C@@H]1c1cccc(F)c1F [Compound 172] | 10 to 100 | – |
| < 10 | – | < 10 | O=C(c1n[nH]c2ncnc(N[C@@H]3CC[C@@H](O)[C@H]3O)c12)N1C[C@@H](F)C[C@@H]1c1cc(F)cc(F)c1 [Compound 173] | – | < 10 |
| < 10 | < 10 | – | O=C(c1n[nH]c2ncnc(NC3CCOCC3O)c12)N1CC(F)CC1c1cc(F)cc(F)c1 (stereo not drawn) [Compound 174] | < 10 | – |
| < 10 | 10 to 100 | – | O=C(c1n[nH]c2ncnc(NC3CCOCC3O)c12)N1CC(F)CC1c1cccc(F)c1F (stereo not drawn) [Compound 175] | 10 to 100 | – |
| < 10 | 10 to 100 | – | O=C(c1n[nH]c2ncnc(N[C@@H]3CC[C@@H](O)[C@H]3O)c12)N1C[C@@H](F)C[C@@H]1c1cccc(F)c1F [Compound 176] | 10 to 100 | – |
| < 10 | – | < 10 | O=C(c1n[nH]c2ncnc(N[C@@H]3CCC[C@H]3O)c12)N1C[C@@H](F)C[C@@H]1c1cc(F)cnc1Cl [Compound 177] | – | < 10 |
| < 10 | 10 to 100 | – | O=C(c1n[nH]c2ncnc(NC3CC(F)CC3O)c12)N1CC(F)CC1c1cc(F)cc(F)c1 (stereo not drawn) [Compound 178] | 10 to 100 | – |
